# Experimental data reported in patent US9695155B2, “Herbicidal substituted pyrimidinyloxy benzene compounds” (E. I. DU PONT DE NEMOURS AND COMPANY, priority 2013, dated 2017).
# Tests used:
# pigweed [1] = experiment: Test A postemergence; assay type: in vivo, Amaranthus retroflexus; settings: 0 to 100 scale where 0 is no effect and 100 is complete control
# Method in brief: (§1)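 Injury scores run from 0, no effect, to 100, complete control, judged by eye against untreated plants roughly 10 days after treatment. Chemicals carried a surfactant in a non-phytotoxic solvent and went onto loam–sand soil preemergence or onto one- to two-leaf seedlings postemergence.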
# barnyardgrass [2] = experiment: Test C postemergence; assay type: in vivo, Echinochloa crus-galli; settings: for Barnyardgrass plant response rating / Plant response rating, Barnyardgrass: scale 0 to 100 (0 no effect, 100 complete control)
# Method in brief: (§2)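 Greenhouse herbicide screen. Pre: seeded loam/sand, sprayed at planting. Post: 1–4 leaf plants (2–18 cm) in peat-based mix. Formulation: solvent mixture + surfactant, non-phytotoxic. Readout: visual % control vs untreated, 13–15 d; dash = not tested.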
# blackgrass = experiment: Test C postemergence; assay type: in vivo, Alopecurus myosuroides; settings: for Blackgrass plant response rating / Plant response rating, Blackgrass: scale 0 to 100 (0 no effect, 100 complete control)
# Method in brief: as §2
# galium = experiment: Test C postemergence; assay type: in vivo, Galium aparine; settings: for Galium plant response rating / Plant response rating, Galium: scale 0 to 100 (0 no effect, 100 complete control)
# Method in brief: as §2
# johnsongrass = experiment: Test C postemergence; assay type: in vivo, Sorghum halepense; settings: for Johnsongrass plant response rating / Plant response rating, Johnsongrass: scale 0 to 100 (0 no effect, 100 complete control)
# Method in brief: as §2
# oilseed rape = experiment: Test C postemergence; assay type: in vivo, Brassica napus
# Method in brief: as §2
# wild oat = experiment: Test C postemergence; assay type: in vivo, Avena fatua
# Method in brief: as §2
# lambsquarters = experiment: Test C postemergence; assay type: in vivo, Chenopodium album
# Method in brief: as §2
# waterhemp = experiment: Test C postemergence; assay type: in vivo, Amaranthus rudis
# Method in brief: as §2
# giant foxtail = experiment: Test A preemergence; assay type: in vivo, Setaria faberii; settings: for Foxtail, Giant plant response rating: 500 g ai/ha
# Method in brief: as §1
# barnyardgrass [3] = experiment: Test A preemergence; assay type: in vivo, Echinochloa crus-galli; settings: for Barnyardgrass plant response rating: 500 g ai/ha
# Method in brief: as §1
# wheat = experiment: Test A preemergence; assay type: in vivo, Triticum aestivum
# Method in brief: as §1
# velvetleaf = experiment: Test A postemergence; assay type: in vivo, Abutilon theophrasti; settings: 0 to 100 scale where 0 is no effect and 100 is complete control
# Method in brief: as §1
# large (Lg) crabgrass = experiment: Test C postemergence; assay type: in vivo, Digitaria sanguinalis; settings: for Crabgrass, Large plant response rating / Plant response rating, Crabgrass, Large: scale 0 to 100 (0 no effect, 100 complete control)
# Method in brief: as §2
# pigweed [4] = experiment: Test A preemergence; assay type: in vivo, Amaranthus retroflexus; settings: for Pigweed plant response rating: 500 g ai/ha
# Method in brief: as §1
# [5] = 16 g ai/ha, postemergence, visual rating, 13 to 15 days
# [6] = Postemergence, 31 g ai/ha, 13 to 15 days
# [7] = Postemergence, 31 g ai/ha, scale 0 to 100 (0 no effect, 100 complete control), 13 to 15 days
# [8] = Postemergence, 62 g ai/ha, scale 0 to 100 (0 no effect, 100 complete control)
# [9] = 125 g ai/ha, 0 to 100 scale where 0 is no effect and 100 is complete control
# [10] = 0 to 100 scale, 0 no effect, 100 complete control, approx. 10 days
# [11] = 16 g ai/ha, postemergence, 0 is no effect, 100 is complete control
# [12] = 31 g ai/ha, postemergence, visual rating, 13 to 15 days
# [13] = 125 g ai/ha, postemergence, visual rating
# [14] = 31 g ai/ha, postemergence, visual rating, scale 0 to 100 (0 no effect, 100 complete control), 13 to 15 days
# [15] = 125 g ai/ha, postemergence, visual rating, scale 0 to 100 (0 no effect, 100 complete control)
# [16] = 0 to 100 scale where 0 is no effect and 100 is complete control
compound,measurement,setting,value
Fc1cnc(Oc2cccc(C(F)F)c2-n2cc(Cl)cn2)nc1 [Compound 94],"Plant response rating, Pigweed",pigweed [1]; 125 g ai/ha,100
same,"Plant response rating, Pigweed",pigweed [1]; 500 g ai/ha,100
same,Barnyardgrass plant response rating,barnyardgrass [2]; [5],10
same,"Plant response rating (0 to 100), Barnyardgrass","barnyardgrass [2]; 125 g ai/ha, postemergence",10
same,"Plant response rating, Barnyardgrass",barnyardgrass [2]; [6],10
same,"Plant response rating, Barnyardgrass","barnyardgrass [2]; Postemergence, 62 g ai/ha",10
same,Blackgrass plant response rating,blackgrass; [5],0
same,"Plant response rating (0 to 100), Blackgrass","blackgrass; 125 g ai/ha, postemergence",5
same,"Plant response rating, Blackgrass",blackgrass; [6],5
same,"Plant response rating, Blackgrass","blackgrass; Postemergence, 62 g ai/ha",5
same,Galium plant response rating,galium; [5],45
same,"Plant response rating (0 to 100), Galium","galium; 125 g ai/ha, postemergence",80
same,"Plant response rating, Galium",galium; [6],70
same,"Plant response rating, Galium","galium; Postemergence, 62 g ai/ha",80
same,Johnsongrass plant response rating,johnsongrass; [5],5
same,"Plant response rating (0 to 100), Johnsongrass","johnsongrass; 125 g ai/ha, postemergence",5
same,"Plant response rating, Johnsongrass",johnsongrass; [6],5
same,"Plant response rating, Johnsongrass","johnsongrass; Postemergence, 62 g ai/ha",5
same,"Plant response rating (0 to 100), Oilseed Rape","oilseed rape; 125 g ai/ha, postemergence",80
same,"Plant response rating, Oilseed Rape",oilseed rape; [7],50
same,"Plant response rating, Oilseed Rape",oilseed rape; [8],50
same,"Plant response rating (0 to 100), Oat, Wild","wild oat; 125 g ai/ha, postemergence",5
same,"Plant response rating, Oat, Wild",wild oat; [7],0
same,"Plant response rating, Oat, Wild",wild oat; [8],0
same,"Plant response rating (0 to 100), Lambsquarters","lambsquarters; 125 g ai/ha, postemergence",85
same,"Plant response rating, Lambsquarters",lambsquarters; [7],65
same,"Plant response rating, Lambsquarters",lambsquarters; [8],75
same,"Plant response rating (0 to 100), Waterhemp","waterhemp; 125 g ai/ha, postemergence",70
same,"Plant response rating, Waterhemp",waterhemp; [7],80
same,"Plant response rating, Waterhemp",waterhemp; [8],75
same,"Plant response rating, Foxtail, Giant",giant foxtail; [9],100
same,"Foxtail, Giant plant response rating",giant foxtail; [10],100
same,"Plant response rating, Barnyardgrass",barnyardgrass [3]; [9],80
same,Barnyardgrass plant response rating,barnyardgrass [3]; [10],100
same,"Plant response rating, Wheat",wheat; [9],0
same,"Plant response rating, Velvetleaf",velvetleaf; 125 g ai/ha,90
same,"Plant response rating, Velvetleaf",velvetleaf; 500 g ai/ha,100
same,"Crabgrass, Large plant response rating",large (Lg) crabgrass; [5],5
same,"Plant response rating (0 to 100), Crabgrass, Large","large (Lg) crabgrass; 125 g ai/ha, postemergence",10
same,"Plant response rating, Crabgrass, Large",large (Lg) crabgrass; [6],5
same,"Plant response rating, Crabgrass, Large","large (Lg) crabgrass; Postemergence, 62 g ai/ha",10
same,"Plant response rating, Pigweed",pigweed [4]; [9],100
same,Pigweed plant response rating,pigweed [4]; [10],100
FC(F)(F)c1cnn(-c2c(Br)cccc2Oc2ncc(Cl)cn2)c1 [Compound 191],Pigweed plant response rating,pigweed [1]; 125 g ai/ha,100
same,"Plant response rating, Pigweed",pigweed [1]; 500 g ai/ha,100
same,"Plant response rating (0 to 100), Barnyardgrass",barnyardgrass [2]; [11],10
same,Barnyardgrass plant response rating,barnyardgrass [2]; [12],10
same,"Plant response rating, Barnyardgrass",barnyardgrass [2]; [13],15
same,"Plant response rating, Barnyardgrass","barnyardgrass [2]; Postemergence, 62 g ai/ha",15
same,"Plant response rating (0 to 100), Blackgrass",blackgrass; [11],0
same,Blackgrass plant response rating,blackgrass; [12],0
same,"Plant response rating, Blackgrass",blackgrass; [13],10
same,"Plant response rating, Blackgrass","blackgrass; Postemergence, 62 g ai/ha",5
same,"Plant response rating (0 to 100), Galium",galium; [11],80
same,Galium plant response rating,galium; [12],80
same,"Plant response rating, Galium",galium; [13],98
same,"Plant response rating, Galium","galium; Postemergence, 62 g ai/ha",98
same,"Plant response rating (0 to 100), Johnsongrass",johnsongrass; [11],30
same,Johnsongrass plant response rating,johnsongrass; [12],10
same,"Plant response rating, Johnsongrass",johnsongrass; [13],10
same,"Plant response rating, Johnsongrass","johnsongrass; Postemergence, 62 g ai/ha",15
same,"Plant response rating (0 to 100), Oilseed Rape",oilseed rape; [11],10
same,Oilseed Rape plant response rating,oilseed rape; [14],45
same,"Plant response rating, Oilseed Rape",oilseed rape; [15],50
same,"Plant response rating, Oilseed Rape",oilseed rape; [8],50
same,"Plant response rating (0 to 100), Oat, Wild",wild oat; [11],5
same,"Oat, Wild plant response rating",wild oat; [14],5
same,"Plant response rating, Oat, Wild",wild oat; [15],10
same,"Plant response rating, Oat, Wild",wild oat; [8],5
same,"Plant response rating (0 to 100), Lambsquarters",lambsquarters; [11],85
same,Lambsquarters plant response rating,lambsquarters; [14],60
same,"Plant response rating, Lambsquarters",lambsquarters; [15],95
same,"Plant response rating, Lambsquarters",lambsquarters; [8],75
same,"Plant response rating (0 to 100), Waterhemp",waterhemp; [11],80
same,Waterhemp plant response rating,waterhemp; [14],85
same,"Plant response rating, Waterhemp",waterhemp; [15],95
same,"Plant response rating, Waterhemp",waterhemp; [8],95
same,"Foxtail, Giant plant response rating (0 to 100 scale)",giant foxtail; 125 g ai/ha,100
same,"Foxtail, Giant plant response rating",giant foxtail; [16],100
same,"Barnyardgrass plant response rating (0 to 100 scale, 0 is no effect, 100 is complete control)",barnyardgrass [3]; 125 g ai/ha,70
same,Barnyardgrass plant response rating,barnyardgrass [3]; [16],100
same,Wheat plant response rating (0 to 100 scale),wheat; 125 g ai/ha,20
same,Wheat plant response rating,"wheat; 500 g ai/ha, 0 to 100 scale where 0 is no effect and 100 is complete control",40
same,Velvetleaf plant response rating,velvetleaf; 125 g ai/ha,90
same,"Plant response rating, Velvetleaf",velvetleaf; 500 g ai/ha,100
same,"Plant response rating (0 to 100), Crabgrass, Large",large (Lg) crabgrass; [11],5
same,"Crabgrass, Large plant response rating",large (Lg) crabgrass; [12],5
same,"Plant response rating, Crabgrass, Large",large (Lg) crabgrass; [13],10
same,"Plant response rating, Crabgrass, Large","large (Lg) crabgrass; Postemergence, 62 g ai/ha",5
same,Pigweed plant response rating (0 to 100 scale),pigweed [4]; 125 g ai/ha,100
same,Pigweed plant response rating,pigweed [4]; [16],100
